{"source": "paper PMC9410914", "about": "(2022)", "test_system": "WT R-mRNA+30 (I-2S8) (RNA, riboswitch) GGGCAGUGAGCAACAAAAUGCUCACCUGGGUCGCAGUAACCCCAGUUAACAAAACAAGGGAGGUAAUUUUGUGCCCAAAAAAAGAAUAAAAGAUUUAGCU", "test": "single-molecule TIRF (SiM-KARB), 30S binding/dissociation rates vs preQ1, global Hill fit", "settings": "K+ 100 mM, Mg2+ 5 mM, NH4+ 5 mM, Ca2+ 0.5 mM; apparent; Tris-polymix pH 7.5, spermidine, putrescine; 20 nM Cy5-30S ribosomal subunits present; indirect readout"}
{"compound": "NCc1c[nH]c2nc(N)[nH]c(=O)c12", "values": [{"measurement": "K1/2", "value": "~ 48 nM"}]}
